Measured values: US9981940B2, “Aryl sulfide derivatives and aryl sulfoxide derivatives as acaricides and insecticides” (BAYER CROPSCIENCE AKTIENGESELLSCHAFT, priority 2013, dated 2018)

Assays:
[1] = log P by HPLC (OECD Guideline 117), method [b] neutral range; type: physicochemical; conditions: for chromatographic logP: reversed-phase C18 HPLC column; for logP[b]: method [b] neutral range
Protocol: (§1) The log P values were determined analogously to OECD Guideline 117 (EC Directive 92/69/EEC) by HPLC (high-performance liquid chromatography) using reversed-phase columns (C 18), by the following methods:
[b] The LC-MS determination in the neutral range is effected at pH 7.8 with 0.001 molar aqueous ammonium hydrogencarbonate solution and acetonitrile as eluents; linear gradient from 10% acetonitrile to 95% acetonitrile.

[2] = log P by HPLC (OECD Guideline 117), method [a] acidic range; type: physicochemical; conditions: for chromatographic logP: reversed-phase C18 HPLC column; for logP[a]: method [a] acidic range
Protocol: as §1
[a] The LC-MS determination in the acidic range is effected at pH 2.7 with 0.1% aqueous formic acid and acetonitrile (contains 0.1% formic acid) as eluents; linear gradient from 10% acetonitrile to 95% acetonitrile.

Tetranychus urticae = Tetranychus urticae spray test, OP-resistant (TETRUR); type: in vivo; conditions: application rate of 500 g/ha, after 6 days; for pest or weed control at 500 g/ha: Tetranychus urticae, 144 h, read-out: efficacy
Procedure, shortened: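 Mortality as % efficacy (0% = no mites killed) read 6 days after spraying. Formulation: active ingredient in acetone/dimethylformamide plus emulsifier, diluted with emulsifier-containing water, applied to Phaseolus vulgaris leaf discs carrying every life stage of OP-resistant spider mites.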

[3] = pH 2.7, HPLC method [a], acidic range, read-out: logP[a]
[4] = pH 2.7, HPLC, acidic range, pH 2.7, read-out: log P[a]

Row | Compound | logP[b] ([1]; HPLC) | logP[a] ([2]; HPLC) | efficacy (Tetranychus urticae) [%] | further results
1 | CC1=C(C)C(=O)N(c2cc(SCC(F)(F)F)c(C)cc2F)C1=O [Example 339, 1-{2-Fluoro-4-methyl-5-[(2,2,2-trifluoroethyl)sulphanyl]phenyl}-3,4-dimethyl-1H-pyrrole-2,5-dione] | – | – | – | chromatographic logP ([1]; HPLC, neutral range, pH 7.8): 3.61; chromatographic logP [2, 3]: 3.6; chromatographic logP [2, 4]: 3.6; pest or weed control at 500 g/ha (Tetranychus urticae): 90%
2 | CC1=CC(=O)N(c2cc(SCC(F)(F)F)c(C)cc2F)C1=O [Example 340] | 3.39 | 3.37 | 90 | –
3 | CC1=C(C)C(=O)N(c2cc([S+]([O-])CC(F)(F)F)c(C)cc2F)C1=O (centres unmarked) [Example 341] | 2.49 | 2.52 | 90 | –
4 | CC1=C(C)C(=O)N(c2cc(SCC(F)(F)F)c(C)cc2C)C1=O [Example 342] | 3.70 | 3.73 | 90 | log P[b] ([1]; HPLC, neutral range, pH 7.8): 3.67; log P[a] ([2]; HPLC, acidic range, pH 2.7): 2.07
5 | Cc1cc(F)c(-n2c(C)c(C)sc2=NCC(F)(F)F)cc1SCC(F)(F)F [Example 343, 2,2,2-Trifluoro-N-[3-{2-fluoro-4-methyl-5-[(2,2,2-trifluoroethyl)sulphanyl]phenyl}-4,5-dimethyl-1,3-thiazol-2(3H)-ylidene]ethanamine] | – | – | – | chromatographic logP ([1]; HPLC, neutral range, pH 7.8): 4.91; chromatographic logP [2, 3]: 3.02; chromatographic logP [2, 4]: 3.02; pest or weed control at 500 g/ha (Tetranychus urticae): 100%
6 | Cc1cc(F)c(-n2c(C)c(C)sc2=NCC(F)(F)F)cc1[S+]([O-])CC(F)(F)F (centres unmarked) [Example 344] | – | – | – | chromatographic logP ([1]; pH 7.8, HPLC method [b], neutral range): 3.68; chromatographic logP [2, 3]: 2.17; pest or weed control at 500 g/ha (Tetranychus urticae): 100%
7 | C=CCn1c(C(F)(F)F)nn(-c2cc(SCC(F)(F)F)c(C)cc2F)c1=O [Example 345] | 4.04 | 4.02 | 100 | –
8 | Cc1cc(F)c(-n2nc(C3CC3)n(C)c2=O)cc1SCC(F)(F)F [Example 346] | 2.92 | 2.97 | 90 | –
9 | Cc1cc(F)c(-n2nc(C3CC3)n(C(C)C)c2=O)cc1SCC(F)(F)F [Example 347] | 3.63 | 3.70 | 100 | –
10 | CCc1nn(-c2cc(SCC(F)(F)F)c(C)cc2F)c(=O)n1-c1cccnc1 [Example 348] | 2.87 | 2.91 | 90 | –
11 | Cc1cc(F)c(-n2nc(C3CCCC3)n(C3CC3)c2=O)cc1SCC(F)(F)F [Example 358, 5-Cyclopentyl-4-cyclopropyl-2-{2-fluoro-4-methyl-5-[(2,2,2-trifluoroethyl)sulphanyl]phenyl}-2,4-dihydro-3H-1,2,4-triazol-3-one] | – | – | – | chromatographic logP ([1]; HPLC, neutral range, pH 7.8): 4.2; chromatographic logP [2, 3]: 4.18; chromatographic logP [2, 4]: 4.18; pest or weed control at 500 g/ha (Tetranychus urticae): 100%
12 | Cc1cc(F)c(-n2nc(CCOC(C)C)n(C3CC3)c2=O)cc1SCC(F)(F)F [Example 359] | 3.66 | 3.63 | 100 | –
13 | Cc1cc(F)c(-n2nc(C3CCCC3)n(C3CC3)c2=O)cc1[S+]([O-])CC(F)(F)F (centres unmarked) [Example 360] | 3.03 | 3.06 | 90 | –
14 | Cc1cc(F)c(-n2nc(C3CCCCC3)n(C3CC3)c2=O)cc1[S+]([O-])CC(F)(F)F (centres unmarked) [Example 361] | 3.31 | 3.34 | 100 | –
15 | Cc1cc(F)c(-n2nc(CCOC(C)C)n(C3CC3)c2=O)cc1[S+]([O-])CC(F)(F)F (centres unmarked) [Example 362] | 2.61 | 2.63 | 90 | –
16 | Cc1cc(F)c(-n2nc(C(F)(F)F)n(C(C)C)c2=O)cc1[S+]([O-])CC(F)(F)F (centres unmarked) [Example 363] | 3.18 | 3.22 | 100 | –
17 | C=CCn1c(C(F)(F)F)nn(-c2cc([S+]([O-])CC(F)(F)F)c(C)cc2F)c1=O (centres unmarked) [Example 364] | 2.96 | 3.00 | 90 | –
18 | CCCCn1c(C(F)(F)F)nn(-c2cc([S+]([O-])CC(F)(F)F)c(C)cc2F)c1=O (centres unmarked) [Example 365] | 3.54 | 3.61 | 100 | –
19 | COc1ccccc1-c1nn(-c2cc(SCC(F)(F)F)c(C)cc2F)c(=O)n1C1CC1 [Example 366] | 3.71 | 3.77 | 100 | –
20 | Cc1cc(F)c(-n2ncn(C(C)(C)C)c2=O)cc1SCC(F)(F)F [Example 367] | 3.23 | 3.27 | 100 | –
21 | Cc1cc(F)c(-n2ncn(Cc3ccccc3)c2=O)cc1SCC(F)(F)F [Example 368] | 3.34 | 3.38 | 100 | –
22 | Cc1cc(F)c(-n2ncn(C(C)(C)C)c2=O)cc1[S+]([O-])CC(F)(F)F (centres unmarked) [Example 369] | 2.16 | 2.21 | 100 | –
23 | Cc1cc(F)c(-n2ncn(Cc3ccccc3)c2=O)cc1[S+]([O-])CC(F)(F)F (centres unmarked) [Example 370] | 2.36 | 2.35 | 100 | –
24 | Cc1cc(C)c(-n2ncn(C(C)(C)C)c2=O)cc1SCC(F)(F)F [Example 371] | 3.39 | 3.46 | 100 | –
25 | Cc1cc(C)c([S+]([O-])CC(F)(F)F)cc1-n1ncn(C(C)(C)C)c1=O (centres unmarked) [Example 372] | 2.28 | 2.34 | 100 | –
26 | Cc1cc(C)c([S+]([O-])CC(F)(F)F)cc1-n1ncn(Cc2ccccc2)c1=O (centres unmarked) [Example 374] | 2.47 | 2.50 | 90 | –
27 | C=CCOc1nn(-c2cc(SCC(F)(F)F)c(C)cc2F)c(=O)n1C1CC1 [Example 375] | 3.70 | 3.74 | 100 | –
28 | Cc1cc(C)c(-n2nc(OCC(F)(F)F)n(C3CC3)c2=O)cc1SCC(F)(F)F [Example 377] | 3.92 | 4.01 | 100 | –
29 | O=c1n(-c2ccc(Br)c(SCC(F)(F)F)c2)nc(OCC(F)(F)F)n1C1CC1 [Example 378] | 4.48 | 4.43 | 90 | –
